pKi: −log10 of the molar value. Where a name gives a salt, the structure may show the parent alone.
Target: human MCH-1 receptor (Homo sapiens, UniProt Q99705)
Experiment: Binding assay for human melanin-concentrating hormone (MCH-1) receptor, radioligand displacement on CHO-K1 cell membranes
Details: not given

Chain of human MCH-1 receptor (Q99705 whole entry): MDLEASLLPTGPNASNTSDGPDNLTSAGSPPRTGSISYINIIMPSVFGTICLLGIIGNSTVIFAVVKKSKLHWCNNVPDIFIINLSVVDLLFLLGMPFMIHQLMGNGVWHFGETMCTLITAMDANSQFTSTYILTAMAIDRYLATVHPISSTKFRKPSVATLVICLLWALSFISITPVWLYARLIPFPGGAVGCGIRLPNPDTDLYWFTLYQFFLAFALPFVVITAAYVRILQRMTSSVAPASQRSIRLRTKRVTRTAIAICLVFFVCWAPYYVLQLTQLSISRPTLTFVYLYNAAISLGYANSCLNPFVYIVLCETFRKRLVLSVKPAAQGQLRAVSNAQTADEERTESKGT

SMILES	pKi
O=c1cc(OCc2ccccc2)ccn1-c1ccc2c3c(oc2c1)CCN1CCCC31 (stereo not drawn) [Example 73, 4-(Benzyloxy)-1-(1,2,3,5,6,11c-hexahydrobenzofuro[2,3-g]indolizin-9-yl)pyridin-2(1H)-one hydrochloride]	8.26
O=c1cc(OCc2ccccc2)ccn1-c1ccc2oc3c(c2c1)CNCC3 [Example 74, 4-(Benzyloxy)-1-(1,2,3,4-tetrahydrobenzofuro[3,2-c]pyridin-8-yl)pyridin-2(1H)-one hydrochloride]	6.43
O=c1cc(OCc2ccccc2)ccn1-c1ccc2oc3c(c2c1)CCNCC3 [Example 77, 4-(Benzyloxy)-1-(2,3,4,5-tetrahydro-1H-benzofuro[2,3-d]azepin-9-yl)pyridin-2(1H)-one hydrochloride]	7.36
O=c1cc(OCc2ccc(F)cn2)ccn1-c1ccc2oc3c(c2c1)CCNCC3 [Example 79, 4-((5-Fluoropyridin-2-yl)methoxy)-1-(2,3,4,5-tetrahydro-1H-benzofuro[2,3-d]azepin-9-yl)pyridin-2(1H)-one hydrochloride]	7.11
O=c1cc(OCc2ccc(F)cn2)ccn1-c1ccc2c3c(oc2c1)CCN1CCCC31 (stereo not drawn) [Example 80, 4-((5-Fluoropyridin-2-yl)methoxy)-1-(1,2,3,5,6,11c-hexahydrobenzofuro[2,3-g]indolizin-9-yl)pyridin-2(1H)-one hydrochloride]	8.08
CC(C)N1CCCc2oc3cc(-n4ccc(OCc5cccc(C(F)(F)F)n5)cc4=O)ccc3c2C1 [Example 81, 1-(2-Isopropyl-2,3,4,5-tetrahydro-1H-benzofuro[3,2-c]azepin-8-yl)-4-((6-(trifluoromethyl)pyridin-2-yl)methoxy)pyridin-2(1H)-one hydrochloride]	7.21
CN1CCCc2oc3cc(-n4ccc(-c5ccc(C(F)(F)F)cc5)cc4=O)ccc3c2C1 [Example 82, 1-(2-Methyl-2,3,4,5-tetrahydro-1H-benzofuro[3,2-c]azepin-8-yl)-4-(4-(trifluoromethyl)phenyl)pyridin-2(1H)-one hydrochloride]	8.09
CN1CCc2oc3cc(-n4ccc(OCc5ccc(C(F)(F)F)nc5)cc4=O)ccc3c2CC1 [Example 84, 1-(3-Methyl-2,3,4,5-tetrahydro-1H-benzofuro[2,3-d]azepin-8-yl)-4-((6-(trifluoromethyl)pyridin-3-yl)methoxy)pyridin-2(1H)-one hydrochloride]	7.54
Cc1ccc(COc2ccn(-c3ccc4c5c(oc4c3)CCCN(C)C5)c(=O)c2)cn1 [Example 85, 1-(2-Methyl-2,3,4,5-tetrahydro-1H-benzofuro[3,2-c]azepin-8-yl)-4-((6-methylpyridin-3-yl)methoxy)pyridin-2(1H)-one hydrochloride]	6.94
CN1CCCc2oc3cc(-n4ccc(OCc5ccc(C(F)(F)F)nc5)cc4=O)ccc3c2C1 [Example 86, 1-(2-Methyl-2,3,4,5-tetrahydro-1H-benzofuro[3,2-c]azepin-8-yl)-4-((6-(trifluoromethyl)pyridin-3-yl)methoxy)pyridin-2(1H)-one hydrochloride]	7.28
O=c1cc(OCc2ccccc2)ccn1-c1ccc2c3c(oc2c1)CCN(CCF)C3 [Example 92, 4-(Benzyloxy)-1-(2-(2-fluoroethyl)-1,2,3,4-tetrahydrobenzofuro[3,2-c]pyridin-7-yl)pyridin-2(1H)-one hydrochloride]	7.60
CC(C)N1CCCc2oc3cc(N4CCN(CCc5ccc(Cl)cc5)CC4=O)ccc3c2C1 [Example 96, 4-(4-Chlorophenethyl)-1-(2-isopropyl-2,3,4,5-tetrahydro-1H-benzofuro[3,2-c]azepin-8-yl)piperazin-2-one hydrochloride]	6.82

Next, values leading:

pKi	SMILES
7.28	O=C1CN(CCc2ccc(F)cn2)CCN1c1ccc2c3c(oc2c1)CCCNC3 [Example 83, 4-(2-(5-Fluoropyridin-2-yl)ethyl)-1-(2,3,4,5-tetrahydro-1H-benzofuro[3,2-c]azepin-8-yl)piperazin-2-one hydrochloride]
7.24	O=C1CN(CCc2ccc(Cl)cc2)CCN1c1ccc2c3c(oc2c1)CCNC3 [Example 87, 4-(4-Chlorophenethyl)-1-(1,2,3,4-tetrahydrobenzofuro[3,2-c]pyridin-7-yl)piperazin-2-one hydrochloride]
7.77	O=C1CN(CCc2ccc(Cl)cc2)CCN1c1ccc2c3c(oc2c1)CCCNC3 [Example 89, 4-(4-Chlorophenethyl)-1-(2,3,4,5-tetrahydro-1H-benzofuro[3,2-c]azepin-8-yl)piperazin-2-one hydrochloride]
7.72	O=C1CN(CCc2ccc(Cl)cn2)CCN1c1ccc2c3c(oc2c1)CCCNC3 [Example 90, 4-(2-(5-Chloropyridin-2-yl)ethyl)-1-(2,3,4,5-tetrahydro-1H-benzofuro[3,2-c]azepin-8-yl)piperazin-2-one hydrochloride]
7.16	CN1CCCc2oc3cc(N4CCN(CCc5ccc(Cl)cc5)CC4=O)ccc3c2C1 [Example 93, 4-(4-Chlorophenethyl)-1-(2-methyl-2,3,4,5-tetrahydro-1H-benzofuro[3,2-c]azepin-8-yl)piperazin-2-one hydrochloride]
6.99	CN1CCCc2oc3cc(N4CCN(CCc5ccc(Cl)cn5)CC4=O)ccc3c2C1 [Example 94, 4-(2-(5-Chloropyridin-2-yl)ethyl)-1-(2-methyl-2,3,4,5-tetrahydro-1H-benzofuro[3,2-c]azepin-8-yl)piperazin-2-one hydrochloride]
6.82	O=C1CN(CCc2ccc(Cl)cn2)CCN1c1ccc2c3c(oc2c1)CCNCC3 [Example 98, 4-(2-(5-Chloropyridin-2-yl)ethyl)-1-(2,3,4,5-tetrahydro-1H-benzofuro[2,3-d]azepin-8-yl)piperazin-2-one hydrochloride]

Same assay, conditions: read-out: MCH1 % inhibition @ 1 uM

SMILES	inhibition at 1 µM [%]
O=c1cc(OCc2ccc(F)cn2)ccn1-c1ccc2oc3c(c2c1)CNCCC3 [Example 75, 4-((5-Fluoropyridin-2-yl)methoxy)-1-(2,3,4,5-tetrahydro-1H-benzofuro[3,2-c]azepin-9-yl)pyridin-2(1H)-one hydrochloride]	34
O=c1cc(OCc2ccc(F)cn2)ccn1-c1ccc2oc3c(c2c1)CNCC3 [Example 76, 4-((5-Fluoropyridin-2-yl)methoxy)-1-(1,2,3,4-tetrahydrobenzofuro[3,2-c]pyridin-8-yl)pyridin-2(1H)-one hydrochloride]	35
O=c1cc(OCc2ccccc2)ccn1-c1ccc2oc3c(c2c1)CNCCC3 [Example 78, 4-(Benzyloxy)-1-(2,3,4,5-tetrahydro-1H-benzofuro[3,2-c]azepin-9-yl)pyridin-2(1H)-one hydrochloride]	35

Continued, values first:

inhibition at 1 µM [%]	SMILES
62	CN1CCCc2oc3cc(N4CCN(CCc5ccc(F)cn5)CC4=O)ccc3c2C1 [Example 95, 4-(2-(5-Fluoropyridin-2-yl)ethyl)-1-(2-methyl-2,3,4,5-tetrahydro-1H-benzofuro[3,2-c]azepin-8-yl)piperazin-2-one hydrochloride]
66	CC(C)N1CCCc2oc3cc(N4CCN(CCc5ccc(Cl)cn5)CC4=O)ccc3c2C1 [Example 97, 4-(2-(5-Chloropyridin-2-yl)ethyl)-1-(2-isopropyl-2,3,4,5-tetrahydro-1H-benzofuro[3,2-c]azepin-8-yl)piperazin-2-one hydrochloride]

From US20140163012A1, “PYRIDO-/AZEPINO-BENZOFURAN AND PYRIDO-/AZEPINO-BENZOTHIOPHENE MCH-1 ANTAGONISTS, METHODS OF MAKING, AND USE THEREOF” (Albany Molecular Research, Inc., priority 2012, published 2014)
